The values that follow come from patent US4851411A, “5-monoaryl as.-triazin-3-ones substituted in 2-position, and their use as medicaments” (Pierre Fabre Medicament, priority 1986, dated 1989).

The series in a line: Solubility. It counts as physicochemical.

In the case of `COc1ccc(-c2cnn(CCN3CCN(c4cccc(C(F)(F)F)c4)CC3)c(=O)n2)cc1` [Example 16, 2-β ethyl (m-trifluoromethylphenyl) piperazine 3-oxo 5-p-methoxyphenylas.-triazine], the solubility in benzene entry is “poorly soluble” and the solubility in ether result is recorded as “insoluble”. For the same molecule, the solubility in chloroform result (chloroform) was “Soluble”. In addition, for the setting “methylene chloride”, the “solubility in methylene chloride” value is “Soluble”. Also, under “water”, the solubility in water result is “insoluble”.

For the molecule `COc1ccc(-c2cnn(C(c3ccccc3)c3ccccc3)c(=O)n2)cc1` [Example 30, 2-N-diphenylmethyl 3-oxo 5-p-methoxyphenyl as.-triazine], the “solubility in alcohols in the hot” value (in the hot) is on record as “Soluble”. Moreover, the solubility in chloroform entry (chloroform) is recorded as “insoluble”. The “solubility in methylene chloride” value (methylene chloride) is on record as “Soluble”. Moreover, the solubility in water result (water) is “insoluble”.

As for `COc1ccc(-c2cnn(CCCC(=O)c3ccc(F)cc3)c(=O)n2)cc1` [Example 33, 2-N-(γp-fluorobutyrophenone) 3-oxo 5-p-methoxyphenyl as.-triazine], the solubility in chloroform entry (chloroform) is “Soluble”. In addition, where the note is “methylene chloride”, the “solubility in methylene chloride” value is listed as “Soluble”. Besides, the solubility in water result (water) was “insoluble”.

With `COc1ccc(-c2cnn(CC(=O)c3ccccc3)c(=O)n2)cc1` [Example 37, 2-Phenacyl 3-oxo 5-p.methoxyphenyl as triazine], the “solubility in acetic acid” value is listed as “Soluble”. Further, the solubility in water result (water) is recorded as “insoluble”.

As for `CC(=O)c1ccc(N2CCN(CCCn3ncc(-c4ccc(C)cc4)nc3=O)CC2)cc1` [Example 11, 2-γ propyl p-piperazinoacetophenone 3-oxo 5-methylphenyl as.-triazine], the solubility in alcohols result is listed as “insoluble” and the solubility in ether result is recorded as “insoluble”. The “solubility in alcohols in the hot” value (in the hot) was “Soluble”. For the same molecule, under “chloroform, in the hot”, the “solubility in chloroform in the hot” value is “Soluble”. The “solubility in methylene chloride in the hot” value (methylene chloride, in the hot) was “Soluble”. For the same molecule, the solubility in water result (water) is given as “insoluble”.

Take `CC(=O)Cn1ncc(-c2ccc(O)cc2)nc1=O` [Example 2, 2-N-acetonyl 3-oxo 5-p-hydroxyphenyl as.-triazine]: the solubility in benzene entry is “Insoluble” and the solubility in ether result is “Insoluble”. Where the note is “in the hot”, the “solubility in alcohols in the hot” value is on record as “Soluble in the hot, recrystallizes in the cold”. For the same molecule, the solubility in chloroform entry (chloroform) is given as “Insoluble”. Moreover, where the note is “dilute aqueous bases”, the “solubility in dilute aqueous bases” value is “soluble”. Under “water”, the solubility in water entry is on record as “rather soluble”.

Turning to `COc1ccc(-c2cnn(CCO)c(=O)n2)cc1` [Example 31, 2-ethanol 3-oxo 5-p-methoxyphenyl as.-triazine], the solubility in benzene entry is reported as “insoluble” and the solubility in ether entry was “insoluble”. Also, the solubility in chloroform result (chloroform) is given as “poorly soluble”. For the same molecule, for the setting “methylene chloride”, the “solubility in methylene chloride” value is given as “rather soluble”. For the same molecule, where the note is “water, in the hot”, the “solubility in water in the hot” value was “Soluble”.

In the case of `CC(=O)Cn1ncc(-c2ccccc2)nc1=O` [Example 7, 2-acetonyl 3-oxo 5-phenyl as.-triazine], the solubility in ether result is listed as “insoluble”. Further, the solubility in chloroform entry (chloroform) is reported as “Soluble”. In addition, for the setting “methylene chloride”, the “solubility in methylene chloride” value is recorded as “Soluble”. The solubility in water entry (water) is recorded as “insoluble”.

`COc1ccc(-c2cnn(CCCN(C)C)c(=O)n2)cc1` [Example 17, 2-γ dimethylaminopropyl 3-oxo 5-p-methoxyphenyl as.-triazine]: the solubility in alcohols result was “Soluble”, the solubility in benzene entry was “Soluble” and the solubility in ether result is on record as “insoluble”. The “solubility in aqueous dilute acids” value (aqueous dilute acids) is recorded as “Soluble”. For the same molecule, the solubility in chloroform entry (chloroform) was “Soluble”. In addition, the “solubility in methylene chloride” value (methylene chloride) is reported as “Soluble”. In addition, the solubility in water result (water) is recorded as “insoluble”.

Turning to `COc1ccc(-c2cnn(CCN3CCN(c4cccc(Cl)c4)CC3)c(=O)n2)cc1` [Example 10, 2 β ethyl(metachlorophenyl)piperazine 3-oxo 5-p-methoxyphenyl as.-triazine], the “solubility in aqueous dilute acids in the hot” value (aqueous dilute acids, in the hot) is listed as “Soluble”. Moreover, the solubility in chloroform result (chloroform) was “Poorly soluble”. Further, the “solubility in methylene chloride” value (methylene chloride) is reported as “Poorly soluble”.

With `COc1ccc(-c2cnn(CCCCCN3CCC(O)CC3)c(=O)n2)cc1` [Example 28, N 2-[ε-pentyl (4-hydroxypiperidine)] 3-oxo 5-p-methoxyphenyl as.-triazine], the solubility in alcohols entry is recorded as “Soluble”. The solubility in chloroform entry (chloroform) was “Soluble”. Besides, the solubility in water entry (water) is on record as “insoluble”.

Turning to `COc1ccc(C(=O)Cn2ncc(-c3ccc(OC)cc3)nc2=O)cc1` [Example 40, 2-p.methoxyphenacyl 3-oxo 5-p.methoxyphenyl as triazine], the “solubility in acetic acid” value was “Insoluble” and the solubility in alcohols result is on record as “Insoluble”. Besides, the solubility in water entry (water) is recorded as “Insoluble”.

For the molecule `CCOC(=O)CCCn1ncc(-c2ccc(C)cc2)nc1=O` [Example 35, 2-N-ethylbutyrate 3-oxo 5-p-methylphenyl as.-triazine], the solubility in alcohols result is on record as “Soluble” and the solubility in benzene entry is on record as “Soluble”. In addition, under “chloroform”, the solubility in chloroform result is given as “Soluble”. In addition, the solubility in water result (water) is recorded as “insoluble”.

As to `COc1ccc(-c2cnn(CC(=O)c3ccc(C)cc3)c(=O)n2)cc1` [Example 38, 2-p.methylphenacyl 3-oxo 5-p.methoxyphenyl as triazine], the “solubility in acetic acid” value is reported as “Soluble” and the solubility in alcohols entry is on record as “Insoluble”. Further, under “water”, the solubility in water entry is listed as “Insoluble”.

As to `COc1ccc(-c2cnn(C(C(=O)c3ccccc3)c3ccccc3)c(=O)n2)cc1` (centres unmarked) [Example 34, 2-N-desyl 3-oxo 5-p-methoxyphenyl as.-triazine], the solubility in ether result is “poorly soluble”. In addition, where the note is “in the hot”, the “solubility in alcohols in the hot” value is given as “Soluble”. The solubility in chloroform entry (chloroform) is listed as “rather soluble”. Moreover, the solubility in water result (water) is “insoluble”.

`COc1ccc(-c2cnn(CC(=O)c3ccc(Cl)cc3Cl)c(=O)n2)cc1` [Example 39, 2-(dichloro-2,4 phenacyl) 3-oxo 5-p.methoxyphenyl as triazine]: the “solubility in acetic acid” value was “Soluble” and the solubility in alcohols result is listed as “Insoluble”. Also, where the note is “water”, the solubility in water entry is “Insoluble”.

As to `CCOc1ccc(-c2cnn(CC(C)=O)c(=O)n2)cc1` [Example 24, 2-acetonyl 3-oxo 5-p-ethoxyphenyl as.-triazine], the solubility in ether entry was “insoluble”. Moreover, where the note is “in the hot”, the “solubility in alcohols in the hot” value is “soluble”. The “solubility in chlorinated solvents” value (chlorinated solvents) is given as “Soluble”. For the same molecule, the solubility in water result (water) is reported as “insoluble”.

In the case of `COc1ccc(-c2cnn(CC(C)=O)c(=O)n2)c(OC)c1` [Example 25, 2-acetonyl 3-oxo 5-(2',4'-dimethoxy)phenyl as.-triazine], the solubility in ether entry is “insoluble”. For the same molecule, the solubility in chloroform entry (chloroform) is on record as “Soluble”. For the same molecule, the “solubility in methylene chloride” value (methylene chloride) is “Soluble”. Further, the solubility in water result (water) was “insoluble”.

`COc1ccc(-c2cnn(C(CCO)C(=O)O)c(=O)n2)cc1` (centres unmarked) [Example 18, 2-[3-(3-carboxy 1-propanol)] 3-oxo 5-p-methoxyphenyl as.-triazine]: the solubility in alcohols result is “rather soluble”. In addition, where the note is “chloroform”, the solubility in chloroform entry is on record as “Poorly soluble”. Also, the “solubility in methylene chloride” value (methylene chloride) is “Poorly soluble”. In addition, the solubility in water entry (water) was “insoluble”.
